The subject of data set [1] is HSA/fructose system. As to the kind of experiment: HSA glycation, early stage: fructosamine (NBT test). In kind it is biochemical, human. Also on record: dose or concentration left out as unconfirmed.
Data set [2] has as its system HSA/fructose system. Briefly: HSA glycation: protein thiol group protection. In kind it is biochemical, human. The settings on record: for thiol shielding / thiol group protection: 100 µg/mL; for Thiols Group: HSA/fructose.
For data set [3], the system named is HSA/fructose system. Briefly: HSA glycation, intermediate stage: protein carbonyls. Format: biochemical, human.
Data set [4] can be described thus: ABTS radical scavenging activity. The conditions noted are these: mean ± SE.
Data set [5] in a line: DPPH radical scavenging activity. The conditions noted are these: mean ± SE. Background: DPPH is a stable violet radical that fades when it is reduced.
The nature of data set [6]: superoxide radical scavenging activity. The settings on record: mean ± SE.
Data set [7] addresses T1, aldose reductase (Homo sapiens, UniProt P15121). Briefly: aldose reductase inhibition kinetics (Lineweaver-Burk, secondary plot). The settings on record: for Mode of Inhibition, Aldose reductase: from double reciprocal plot. Format: biochemical.
Data set [8] relates to α-glucosidase. Briefly: α-glucosidase inhibition kinetics (Lineweaver-Burk, secondary plot). Format: biochemical, yeast. The conditions noted are these: for Mode of Inhibition, α-Glucosidase: from double reciprocal plot; for Ki, α-Glucosidase: secondary plot, mean ± SE.
The target in data set [9] is yeast α-glucosidase. Format: biochemical. The settings on record: mean ± SE.
The target in data set [10] is T2, α-amylase (Sus scrofa, UniProt P00690).
T2 sequence (P00690 16-511): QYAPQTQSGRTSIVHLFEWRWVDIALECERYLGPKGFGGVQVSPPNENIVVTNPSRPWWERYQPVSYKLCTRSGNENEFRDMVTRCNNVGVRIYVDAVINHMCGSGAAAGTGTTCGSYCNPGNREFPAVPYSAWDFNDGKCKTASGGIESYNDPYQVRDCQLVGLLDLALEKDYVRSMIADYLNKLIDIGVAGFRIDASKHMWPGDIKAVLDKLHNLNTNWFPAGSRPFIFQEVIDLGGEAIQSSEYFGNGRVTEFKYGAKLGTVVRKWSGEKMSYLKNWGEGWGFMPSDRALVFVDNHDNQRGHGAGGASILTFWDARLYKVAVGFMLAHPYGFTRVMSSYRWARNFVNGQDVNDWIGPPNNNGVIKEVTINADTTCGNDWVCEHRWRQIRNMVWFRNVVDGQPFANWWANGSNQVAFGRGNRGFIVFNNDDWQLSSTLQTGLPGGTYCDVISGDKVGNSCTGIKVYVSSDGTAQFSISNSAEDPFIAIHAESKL
Briefly: α-amylase inhibition kinetics (Lineweaver-Burk, secondary plot). Format: biochemical, porcine.

On the set-up of data set [11]: method as in earlier work. The conditions noted are these: ref [9] of the supplement, cited from earlier work.
Data set [12] has as its target T3, type-VI B porcine pancreatic α-amylase (Sus scrofa, UniProt P00690).
T3 sequence (P00690 16-511): T2 sequence (P00690 16-511)
As to the kind of experiment: α-amylase inhibition assay. In kind it is biochemical. The conditions noted are these: mean ± SE.

Data set [13] has as its target T1, aldose reductase. Briefly: aldose reductase inhibition assay. The settings on record: mean ± SE. Format: biochemical.

Where “and” joins values, the source holds several entries; their conditions need not be identical. Equal entries are not always repeated. Marks after values point to notes of the source that are not given here.

With `N=C(N)NN` [Aminoguanidine, aminoguanidine, reference compound], the Fructosamine is recorded as 28.50 ± 1.16 ^d mmol/mg Protein in [1] (week 1), 30.00 ± 1.00 ^d mmol/mg Protein in data set [1] (week 2) and 31.75 ± 0.97 ^d mmol/mg Protein in data set [1] (week 3). Further, the “thiol shielding / thiol group protection” value in [2] is reported as 71%. Further, the results for the “Thiols Group” value in data set [2] (week 1), in data set [2] (week 2) and in [2] (week 3) were 0.95 ± 1.46 ^b nmol/mg protein, 1.04 ± 1.00 ^b nmol/mg protein and 1.17 ± 0.89 ^b nmol/mg protein, respectively. Moreover, the “Protein carbonyl Content” value in data set [3] (week 1) is on record as 0.64 ± 0.54 ^e nmol/mg protein; in data set [3] (week 2), 0.66 ± 1.05 ^e nmol/mg protein; in [3] (week 3) it was 0.70 ± 1.11 ^e nmol/mg protein.

As for `COc1ccc(O)c(C(C)(C)C)c1` [BHA, butylated hydroxyl anisole, reference compound], in data set [4], the “EC50 Radical Scavenging Activities ABTS” value is listed as 31.00 ± 0.55 ^d μg/mL. Also, in data set [5], the “EC50 Radical Scavenging Activities DPPH” value is given as 40.25 ± 0.30 ^d μg/mL. Besides, the “EC50 Radical Scavenging Activities Superoxide” value in data set [6] is on record as 64.75 ± 0.13 ^d μg/mL.

`O=C(O)C=Cc1ccc(O)c(O)c1` [Caffeic acid, 3-(3,4-Dihydroxyphenyl)-2-propenoic acid]: the Fructosamine in [1] (week 1) is 26.82 ± 0.14 ^a mmol/mg Protein; in data set [1] (week 2), 27.06 ± 0.13 ^a mmol/mg Protein; in data set [1] (week 3), 28.02 ± 1.04 ^a mmol/mg Protein. In addition, the “EC50 Radical Scavenging Activities ABTS” value in [4] is on record as 12.44 ± 1.60 ^b μg/mL. In addition, the “thiol shielding / thiol group protection” value in [2] is reported as 74–83%. The “Thiols Group” value in data set [2] (week 1) is listed as 0.69 ± 0.55 ^a nmol/mg protein; in data set [2] (week 2), 0.79 ± 0.05 ^a nmol/mg protein; in [2] (week 3), 0.80 ± 0.88 ^a nmol/mg protein. Besides, in data set [7], the “Mode of Inhibition, Aldose reductase” value is “Non-competitive”. Besides, the “Vmax, Aldose reductase” value in data set [7] (inhibitor at IC20) was 13.35 10^3(µM/min)^−1; in [7] (inhibitor at IC40), 10.15 10^3(µM/min)^−1; in [7] (inhibitor at IC60) it was 5.05 10^3(µM/min)^−1. Besides, the “Mode of Inhibition, α-Glucosidase” value in [8] is given as “Competitive”. The “Vmax, α-Glucosidase” value in data set [8] (inhibitor at IC20) is 39.98 10^3(µM/min)^−1; in data set [8] (inhibitor at IC40), 40.40 10^3(µM/min)^−1; in data set [8] (inhibitor at IC60), 40.37 10^3(µM/min)^−1. The “Ki, α-Glucosidase” value in data set [8] (listed as CA) is 1.03 mg and 0.52 ± 0.02 mg. The “EC50 Radical Scavenging Activities DPPH” value in [5] is 18.50 ± 0.08 ^b μg/mL. Also, the “IC50 α-Glucosidase” value in [9] is on record as 8.00 ± 0.40 ^a µg/mL. Moreover, in data set [10] (inhibitor at IC40), the “Vmax, α-Amylase” value is recorded as 25.75 10^3(µM/min)^−1. Moreover, the “EC50 Radical Scavenging Activities Superoxide” value in data set [6] is 30.13 ± 2.05 ^b μg/mL. For the same compound, the “Protein carbonyl Content” value is on record as 0.49 ± 2.17 ^b nmol/mg protein in data set [3] (week 1), 0.57 ± 1.25 ^b nmol/mg protein in data set [3] (week 2) and 0.57 ± 2.22 ^b nmol/mg protein in data set [3] (week 3).

Consider `O=c1c(O)c(-c2ccc(O)c(O)c2)oc2cc(O)cc(O)c12` [Quercetin], for which the “adverse effects on serum electrolytes, renal, haematological, and liver function blood parameters” value in data set [11] (>1000 mg/day for several months) is given as “no adverse effects”. In addition, the “safety and tolerability in human clinical trials” value in data set [11] is “safe and well-tolerated”.

By IC50 is commonly meant the concentration that gives 50% inhibition. The term Ki denotes the equilibrium dissociation constant of an inhibitor or competing ligand from its target. For the compound `COc1cc(C(=O)O)cc(OC)c1O` [Syringic acid, 4-Hydroxy-3,5-dimethoxybenzoic acid], the values for the Fructosamine in data set [1] (week 1), in data set [1] (week 2) and in [1] (week 3) were 26.30 ± 1.21 ^b mmol/mg Protein, 26.99 ± 1.90 ^b mmol/mg Protein and 26.41 ± 1.18 ^b mmol/mg Protein, respectively. The IC50 in [12] is 127 µM; in data set [13] it was 15.1 µM. For the same compound, the “EC50 Radical Scavenging Activities ABTS” value in [4] is listed as 11.40 ± 2.04 ^a μg/mL. Moreover, in data set [2], the “thiol shielding / thiol group protection” value is listed as 74–83%. The “Thiols Group” value in [2] (week 1) is on record as 0.64 ± 0.62 ^a nmol/mg protein; in [2] (week 2), 0.76 ± 0.53 ^a nmol/mg protein; in [2] (week 3) it was 0.78 ± 0.34 ^a nmol/mg protein. For the same compound, the “Mode of Inhibition, Aldose reductase” value in data set [7] was “Non-competitive”. For the same compound, the results for the “Vmax, Aldose reductase” value in [7] (inhibitor at IC20), in [7] (inhibitor at IC40) and in data set [7] (inhibitor at IC60) were 34.47 10^3(µM/min)^−1, 20.05 10^3(µM/min)^−1 and 11.50 10^3(µM/min)^−1, respectively. The Ki was 8.28 µM in data set [7] (secondary plot, mean ± SE) and 6.31 µM in data set [10] (secondary plot, mean ± SE). Further, the “Mode of Inhibition, α-Glucosidase” value in data set [8] is on record as “Competitive”. Moreover, the “Vmax, α-Glucosidase” value in data set [8] (inhibitor at IC20) is reported as 33.55 10^3(µM/min)^−1; in data set [8] (inhibitor at IC40), 33.43 10^3(µM/min)^−1; in data set [8] (inhibitor at IC60) it was 33.79 10^3(µM/min)^−1. Besides, the “Ki, α-Glucosidase” value turned out to be 0.96 ± 0.22 mg in data set [8] and 1.25 mg in data set [8] (listed as SA). Further, in data set [5], the “EC50 Radical Scavenging Activities DPPH” value is given as 16.00 ± 0.13 ^a μg/mL. Moreover, the “IC50 α-Glucosidase” value in [9] was 7.50 ± 1.05 ^a µg/mL. Further, in [10] (from double reciprocal plot), the “Mode of Inhibition, α-Amylase” value is on record as “Competitive”. Further, the figures for the “Vmax, α-Amylase” value in [10] (inhibitor at IC20), in data set [10] (inhibitor at IC40) and in data set [10] (inhibitor at IC60) were 51.10 10^3(µM/min)^−1, 51.11 10^3(µM/min)^−1 and 50.95 10^3(µM/min)^−1, respectively. The “EC50 Radical Scavenging Activities Superoxide” value in [6] is 28.00 ± 1.19 ^a μg/mL. In addition, the “Protein carbonyl Content” value in data set [3] (week 1) is on record as 0.49 ± 1.06 ^c nmol/mg protein; in data set [3] (week 2) it was 0.54 ± 0.62 ^c nmol/mg protein; in [3] (week 3) it was 0.54 ± 1.32 ^c nmol/mg protein.

The values are drawn from paper PMC8949615, “Inhibitory Effect of Polyphenols from the Whole Green Jackfruit Flour against α-Glucosidase, α-Amylase, Aldose Reductase and Glycation at Multiple Stages and Their Interaction: Inhibition Kinetics and Molecular Simulations” (Molecules, 2022).
